The source of these data is patent publication US8772323B2, “Benzoxazole- and tetrahydrobenzoxazole-substituted pyridazinones as GPR119 agonists” (Boehringer Ingelheim International GmbH, priority 2010, dated 2014).

The assay addresses human GPR119 (Homo sapiens (Human), UniProt Q8TDV5). The assay can be described thus: AlphaScreen cAMP assay in Min-6/hGPR119 cells (GPR119 activation, intracellular cAMP). The assay is classed as cell-based. The following applies: MIN6 cells stably transfected with human GPR119; 45 minutes' incubation at RT; AlphaScreen cAMP Assay Kit. In short, it runs like this: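 cAMP quantified by AlphaScreen after 45 min room-temperature compound exposure in HEPES/bicarbonate buffer, pH 7.4, containing 0.5 mM IBMX, 0.1% BSA and 1% DMSO final. Cells were Min-6 stably transfected with human GPR119, seeded 24 h beforehand.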
(In Alpha technology, singlet oxygen from a donor bead excites a nearby acceptor bead.)

Sequence of human GPR119 (Q8TDV5 whole entry): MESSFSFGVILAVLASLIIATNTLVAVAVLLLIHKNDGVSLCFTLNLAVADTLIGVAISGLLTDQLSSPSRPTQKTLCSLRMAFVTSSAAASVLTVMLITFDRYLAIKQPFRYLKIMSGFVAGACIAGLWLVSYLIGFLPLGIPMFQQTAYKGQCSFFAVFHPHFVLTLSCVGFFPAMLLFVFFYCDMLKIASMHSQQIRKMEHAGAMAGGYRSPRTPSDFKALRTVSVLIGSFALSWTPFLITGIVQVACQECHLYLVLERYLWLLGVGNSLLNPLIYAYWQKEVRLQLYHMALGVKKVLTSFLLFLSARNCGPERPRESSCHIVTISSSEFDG

A word on the EC50: it is the concentration needed to bring the measured effect to its halfway point. A higher EC50 goes with a less potent agent. On to `CCC1CC(=O)NN=C1c1ccc2nc(-c3ccc(OCCN4CCN(C(C)C)CC4)cc3)oc2c1` (stereo not drawn) [Example 168, 5-ethyl-6-(2-{4-[2-(4-isopropyl-piperazin-1-yl)-ethoxy]-phenyl}-benzoxazol-6-yl)-4,5-dihydro-2H-pyridazin-3-one], for which the EC50 came to 3010 nM. The same measure for `CCC1CC(=O)NN=C1c1ccc2nc(-c3ccc(C(C)C)cc3)oc2c1` (stereo not drawn) [Example 175, 5-ethyl-6-[2-(4-isopropyl-phenyl)-benzoxazol-6-yl]-4,5-dihydro-2H-pyridazin-3-one]: 462 nM; for `CCC1CC(=O)NN=C1c1ccc2nc(-c3ccc(OC4CCCC4)cc3)oc2c1` (stereo not drawn) [Example 176, 6-[2-(4-cyclopentyloxy-phenyl)-benzoxazol-6-yl]-5-ethyl-4,5-dihydro-2H-pyridazin-3-one]: 82 nM; for `CCC1CC(=O)NN=C1c1ccc2nc(-c3ccc(N4CCOCC4)cc3)oc2c1` (stereo not drawn) [Example 177, 5-ethyl-6-[2-(4-morpholin-4-yl-phenyl)-benzoxazol-6-yl]-4,5-dihydro-2H-pyridazin-3-one]: 134 nM. The same measure for `CCC1CC(=O)NN=C1c1ccc2nc(-c3ccc(C(C)OC)cc3)oc2c1` (stereo not drawn) [Example 180, 5-ethyl-6-{2-[4-(1-methoxy-ethyl)-phenyl]-benzoxazol-6-yl}-4,5-dihydro-2H-pyridazin-3-one]: 290 nM; for `CCC1CC(=O)NN=C1c1ccc2nc(-c3ccc(OC4CCOC4)cc3)oc2c1` (stereo not drawn) [Example 181, 5-ethyl-6-{2-[4-(tetrahydro-furan-3-yloxy)-phenyl]-benzoxazol-6-yl}-4,5-dihydro-2H-pyridazin-3-one]: 156 nM; for `CCC[C@H]1C(=O)NN=C(c2ccc3nc(-c4ccco4)oc3c2)[C@@H]1C` [Example 188, trans-6-(2-uran-2-yl-benzoxazol-6-yl)-5-methyl-4-propyl-4,5-dihydro-2H-pyridazin-3-one]: 83 nM. The same measure for `CC[C@@H]1CC(=O)NN=C1c1ccc2nc(-c3ccc(OC)cc3)oc2c1` [Example 190, (5R)-5-ethyl-6-[2-(4-methoxyphenyl)-1,3-benzoxazol-6-yl]-2,3,4,5-tetrahydropyridazin-3-one]: 79 nM. In turn, `CC[C@@H]1CC(=O)NN=C1c1ccc2nc(-c3ccc(N(C)C)cc3)oc2c1` [Example 191, (5R)-6-{2-[4-(dimethylamino)phenyl]-1,3-benzoxazol-6-yl}-5-ethyl-2,3,4,5-tetrahydropyridazin-3-one] yielded an EC50 of 41 nM. `CC[C@H]1CC(=O)NN=C1c1ccc2nc(-c3ccc(OC(C)C)cc3)oc2c1` [Example 192, (S)-5-ethyl-6-[2-(4-isopropoxy-phenyl)-benzoxazol-6-yl]-4,5-dihydro-2H-pyridazin-3-one]: the EC50 is 6060 nM. On to `CC[C@@H]1CC(=O)NN=C1c1ccc2nc(-c3ccc(OC(C)C)cc3)oc2c1` [Example 193, (R)-5-ethyl-6-[2-(4-isopropoxy-phenyl)-benzoxazol-6-yl]-4,5-dihydro-2H-pyridazin-3-one], for which the EC50 was 30 nM.

For `CC[C@H]1CC(=O)NN=C1c1ccc2nc(-c3ccc(OC4CCOCC4)cc3)oc2c1` [Example 194, (S)-5-ethyl-6-{2-[4-(tetrahydro-pyran-4-yloxy)-phenyl]-benzoxazol-6-yl}-4,5-dihydro-2H-pyridazin-3-one], the EC50 stood at 333 nM. The same measure for `CC[C@@H]1CC(=O)NN=C1c1ccc2nc(-c3ccc(OC4CCOCC4)cc3)oc2c1` [Example 195, (R)-5-ethyl-6-{2-[4-(tetrahydro-pyran-4-yloxy)-phenyl]-benzoxazol-6-yl}-4,5-dihydro-2H-pyridazin-3-one]: 51 nM; for `CCC[C@H]1C(=O)NN=C(c2ccc3nc(-c4ccccc4)oc3c2)[C@@H]1C` [Example 196, (4R,5R)-5-methyl-6-(2-phenyl-1,3-benzoxazol-6-yl)-4-propyl-2,3,4,5-tetrahydropyridazin-3-one]: 39 nM. The same measure for `CCC1CC(=O)NN=C1c1ccc2nc(-c3cccc(OCCN4CCCC4)c3)oc2c1` (stereo not drawn) [Example 201, 5-ethyl-6-{2-[3-(2-pyrrolidin-1-yl-ethoxy)-phenyl]-benzoxazol-6-yl}-4.5-dihydro-2H-pyridazin-3-one]: 3030 nM.

In turn, `CC[C@@H]1CC(=O)NN=C1N1CCc2nc(-c3ccccc3)oc2C1` [Example 202, (5R)-5-ethyl-6-{2-phenyl-4H,5H,6H,7H-pyrido[4.3-d][1.3]oxazol-5-yl}-2,3,4,5-tetrahydropyridazin-3-one] registered an EC50 of 133 nM.

Take `CCC[C@@H]1C(=O)NN=C(c2ccc3nc(-c4ccc(O)cc4)oc3c2)[C@H]1C` [Example 203]: the EC50 is 962 nM. Regarding `O=c1ccc(-c2ccc3nc(-c4ccccc4)oc3c2)n[nH]1` [Example 204, 6-(2-phenyl-1,3-benzoxazol-6-yl)-2,3-dihydropyridazin-3-one], a half-maximal response (EC50) required 414 nM. Regarding `CCC1OC(=O)NN=C1N1CCc2nc(-c3ccccc3)oc2C1` (stereo not drawn) [Example 205, 6-ethyl-5-(2-phenyl-6,7-dihydro-4H-oxazolo[5,4-c]pyridin-5-yl)-3,6-dihydro-[1,3,4]oxadiazin-2-one], the EC50 came out at 50 nM. As for `CC[C@H]1OC(=O)NN=C1N1CCc2nc(-c3ccccc3)oc2C1` [Example 206, (R)-6-ethyl-5-(2-phenyl-6,7-dihydro-4H-oxazolo[5,4-c]pyridin-5-yl)-3,6-dihydro-[1.3.4]oxadiazin-2-one], the figure is 27 nM.

Compound `CC[C@@H]1OC(=O)NN=C1N1CCc2nc(-c3ccccc3)oc2C1` [Example 207, (S)-6-ethyl-5-(2-phenyl-6,7-dihydro-4H-oxazolo[5,4-c]pyridin-5-yl)-3,6-dihydro-[1.3.4]oxadiazin-2-one] displayed an EC50 of 578 nM. Take `CC[C@H]1C(c2ccc3nc(-c4ccc(OC(C)C)cc4)oc3c2)=NNC(=O)[C@@H]1C` [Example 208, (4R,5R)-5-ethyl-4-methyl-6-{2-[4-(propan-2-yloxy)phenyl]-1,3-benzoxazol-6-yl}-2,3,4,5-tetrahydropyridazin-3-one]: the EC50 was 88 nM. As for `CCC1CC(=O)NN=C1c1ccc2nc(-c3ccc(OCC(C)N4CCCC4)cc3)oc2c1` (stereo not drawn) [Example 209, 5-ethyl-6-{2-[4-(2-pyrrolidin-1-yl-propoxy)-phenyl]-benzoxazol-6-yl}-4,5-dihydro-2H-pyridazin-3-one], the figure is 311 nM. As for `CCC1CC(=O)NN=C1c1ccc2nc(-c3ccc(OC(C)CN4CCCC4)cc3)oc2c1` (stereo not drawn) [Example 210, 5-ethyl-6-[2-(4-{[1-(pyrrolidin-1-yl)propan-2-yl]oxy}phenyl)-1,3-benzoxazol-6-yl]-2,3,4,5-tetrahydropyridazin-3-one], the figure is 590 nM. As for `CCC1CC(=O)NN=C1c1ccc2nc(-c3ccc(OCC(C)O)cc3)oc2c1` (stereo not drawn) [Example 211, 5-ethyl-6-{2-[4-(2-hydroxy-propoxy)-phenyl]-benzoxazol-6-yl}-4,5-dihydro-2H-pyridazin-3-one], the figure is 395 nM; as for `CCC1CC(=O)NN=C1c1ccc2nc(-c3ccc(OC4CCCCC4O)cc3)oc2c1` (stereo not drawn) [Example 212, 5-ethyl-6-(2-{4-[(2-hydroxycyclohexyl)oxy]phenyl}-1,3-benzoxazol-6-yl)-2,3,4,5-tetrahydropyridazin-3-one], 108 nM; as for `C=CCOc1ccc(-c2nc3ccc(C4=NNC(=O)CC4CC)cc3o2)cc1` (stereo not drawn) [Example 213, 6-[2-(4-allyloxy-phenyl)-benzoxazol-6-yl]-5-ethyl-4,5-dihydro-2H-pyridazin-3-one], 241 nM.
